Data published in US11246882B2, “Pharmaceutical composition for inhibiting resistance against anticancer drugs of patient suffering from ovarian cancer comprising NAG-1 inhibitor as active ingredient” (PUSAN NATIONAL UNIVERSITY INDUSTRY-UNIVERSITY COOPERATION …, priority 2015, dated 2022).

What was measured:
[1] = tested on: ovarian cancer stem cells (R182); experiment: Cell viability by MTT assay: resistance of ovarian cancer stem cells against Taxol under NAG-1 regulation; format: cell-based, Human
Protocol: Human epithelial ovarian cancer stem cell line R182 cells were provided by Prof. Gil Mor (Yale University School of Medicine). A2780 cells were purchased from American Type Culture Collection (Manassas, Va.). Cells were maintained in RPMI 1640 medium (supplemented with 20% [v/v] heat-inactivated FBS, 50 U/ml penicillin, and […] streptomycin) in a 5% CO2 humidified incubator at 37° C. Cell numbers were counted by trypan blue (Sigma-Aldrich, St. Louis, Mo., USA) using a hemocytometer according to dye exclusion assay.
200 μl of the cultured cancer cells were seeded into a 96-well plate to have 5×10^3 cells/well, and cultured for 24 hours at a temperature of 37° C. in a wet incubator with carbon 5% and […] supplied thereto. Then, an empty vector (pSilencer 4.1-CMV-neo vector, Ambion, USA) and shRNA specific to NAG-1 were added to the ovarian cancer cells, cultured for 48 hours, and treated for 48 hours with an anticancer drug, Taxol, according to the concentrations. 50 μl of MTT solution (1 mg/ml) in PBS was added to each well, and cultured again for 6 hours. After the formation of formazan was confirmed, the MTT solution was completely removed. […] Afterwards, a micro plate reader (Molecular Devices, USA) was used to measure absorbance at 560 nm. Accordingly, the relative cell viability was calculated when cells that were not treated with an anticancer drug was considered as 100%. […]

ovarian cancer cells = experiment: Treatment of ovarian cancer cells with the anticancer drug Taxol; format: cell-based; conditions: ovarian cancer cells other than stem cells

Molecule: shRNA specific to NAG-1: shRNA having SEQ ID NO: 1 (ACAUGCACGCGCAGAUCAA), inhibitor of expression of NAG-1 protein; expression vector
- resistance against the anticancer drug (Taxol), amount of living cells by MTT assay ([1]; R182 cells, shRNA added, cultured 48 hours, then Taxol 48 hours, compared with empty vector (FIG. 5)): the resistance against the anticancer drug was reduced

Molecule: CC(=O)O[C@H]1C(=O)[C@@]2(C)[C@H]([C@H](OC(=O)c3ccccc3)[C@]3(O)C[C@H](OC(=O)[C@H](O)[C@@H](NC(=O)c4ccccc4)c4ccccc4)C(C)=C1C3(C)C)[C@]1(OC(C)=O)CO[C@@H]1C[C@@H]2O [Taxol]
- cell death of ovarian cancer stem cells on treatment with anticancer drug ([1]; ovarian cancer stem cells): ovarian cancer stem cells did not die
- cell death of ovarian cancer cells on treatment with anticancer drug (ovarian cancer cells): ovarian cancer cells die
